{
  "source": "paper PMC11550483",
  "about": "(2024)",
  "data": [
    {"target": "SARS2 M^pro (Severe acute respiratory syndrome coronavirus 2, UniProt P0DTD1, P3395H)", "assay_type": "biochemical, SARS-CoV-2", "units": {"% inhibition (20 µM) biochemical": "%"}, "values": [
      {"smiles": "CCOC(=O)/C=C(\\C)N1N=C(c2ccccc2)CC1c1ccc(N(C)C)cc1", "note": "(stereo not shown) [MWAC-0001831, CCOC(=O)\\C=C(/C)\\N1N=C(CC1c2ccc(cc2)N(C)C)c3ccccc3]", "% inhibition (20 µM) biochemical": 5.67},
      {"smiles": "C#CCN1C(=O)C(O)(CC(=O)c2ccc(F)cc2)c2ccccc21", "note": "(stereo not shown) [MWAC-0001730, OC1(CC(=O)c2ccc(F)cc2)C(=O)N(CC#C)c3ccccc13]", "% inhibition (20 µM) biochemical": 8},
      {"smiles": "CCOC(=O)CS(=O)(=O)c1ccc(C(=O)N2CCN(C(=O)c3ccco3)CC2)cc1[N+](=O)[O-]", "note": "[MWAC-0001736, CCOC(=O)CS(=O)(=O)c1ccc(cc1[N+](=O)[O-])C(=O)N2CCN(CC2)C(=O)c3occc3]", "% inhibition (20 µM) biochemical": 14},
      {"smiles": "COc1ccc(C(=O)Nc2ccccc2N)cc1", "note": "[MWAC-0001806, COc1ccc(cc1)C(=O)Nc2ccccc2N]", "% inhibition (20 µM) biochemical": 1},
      {"smiles": "Cc1cc(C(=O)COn2nnc3ccccc32)c(C)n1-c1ccc2c(c1)OCO2", "note": "[MWAC-0001845, Cc1cc(C(=O)COn2nnc3ccccc23)c(C)n1c4ccc5OCOc5c4]", "% inhibition (20 µM) biochemical": 20},
      {"smiles": "CC1CCN(C(=O)/C=C/c2cccc3ccccc23)CC1", "note": "[MWAC-0001755, CC1CCN(CC1)C(=O)\\C=C\\c2cccc3ccccc23]", "% inhibition (20 µM) biochemical": 4.32},
      {"smiles": "CN(C)c1ccc(/C=N\\Nc2cn[nH]c(=O)c2Cl)cc1", "note": "[MWAC-0001746, CN(C)c1ccc(\\C=N/NC2=C(Cl)C(=O)NN=C2)cc1]", "% inhibition (20 µM) biochemical": 15},
      {"smiles": "Cc1ccc2nc(N3C(=O)C(O)=C(C(=O)c4ccco4)C3c3ccco3)sc2c1", "note": "(stereo not shown) [MWAC-0001821, Cc1ccc2nc(sc2c1)N3C(C(=C(O)C3=O)C(=O)c4occc4)c5occc5]", "% inhibition (20 µM) biochemical": 16},
      {"smiles": "CCCOc1ccc(CN2C(=O)C(=O)c3ccccc32)cc1", "note": "[MWAC-0001830, CCCOc1ccc(CN2C(=O)C(=O)c3ccccc23)cc1]", "% inhibition (20 µM) biochemical": 5},
      {"smiles": "O=C(CCl)NC(c1ccccc1)c1ccc(Cl)cc1", "note": "(stereo not shown) [MWAC-0001861, ClCC(=O)NC(c1ccccc1)c2ccc(Cl)cc2]", "% inhibition (20 µM) biochemical": 67},
      {"smiles": "CCOC(=O)c1sc(NC(=O)c2sccc2C)cc1C", "note": "[MWAC-0001852, CCOC(=O)c1sc(NC(=O)c2sccc2C)cc1C]", "% inhibition (20 µM) biochemical": 10},
      {"smiles": "Fc1cccc(/N=c2\\oc3ccccc3cc2-c2nc3ccccc3[nH]2)c1", "note": "[MWAC-0001716, Fc1cccc(c1)\\N=C\\2/Oc3ccccc3C=C2c4nc5ccccc5[nH]4]", "% inhibition (20 µM) biochemical": 0},
      {"smiles": "COc1ccccc1Nc1nc(-c2ccccn2)cs1", "note": "[MWAC-0001885, COc1ccccc1Nc2nc(cs2)c3ccccn3]", "% inhibition (20 µM) biochemical": 0},
      {"smiles": "Cc1ccccc1C(=O)Nc1ccc(Br)cc1", "note": "[MWAC-0001804, Cc1ccccc1C(=O)Nc2ccc(Br)cc2]", "% inhibition (20 µM) biochemical": 2.44},
      {"smiles": "Cc1cc(CNC(=O)CCl)cc(C)c1O", "note": "[MWAC-0001858, Cc1cc(CNC(=O)CCl)cc(C)c1O]", "% inhibition (20 µM) biochemical": 45},
      {"smiles": "Cc1ccc(-c2cn3ccc4ccccc4c3n2)cc1", "note": "[MWAC-0001723, Cc1ccc(cc1)c2cn3ccc4ccccc4c3n2]", "% inhibition (20 µM) biochemical": 8},
      {"smiles": "CCOc1ccccc1C1Nc2ccccc2NC2=C1C(=O)CC(c1ccccc1)C2", "note": "(stereo not shown) [MWAC-0001718, CCOc1ccccc1C2Nc3ccccc3NC4=C2C(=O)CC(C4)c5ccccc5]", "% inhibition (20 µM) biochemical": 0},
      {"smiles": "CCN(CC)c1ccc(/C=N/n2c(S)nnc2-c2cccnc2)c(O)c1", "note": "[MWAC-0001796, CCN(CC)c1ccc(\\C=N\\n2c(S)nnc2c3cccnc3)c(O)c1]", "% inhibition (20 µM) biochemical": 9},
      {"smiles": "CC(NC(=O)CCl)C1COc2ccccc2O1", "note": "(stereo not shown) [MWAC-0001857, CC(NC(=O)CCl)C1COc2ccccc2O1]", "% inhibition (20 µM) biochemical": 26},
      {"smiles": "CCOc1ccc2nc(SC3CC(=O)N(c4ccccc4C(F)(F)F)C3=O)sc2c1", "note": "(stereo not shown) [MWAC-0001714, CCOc1ccc2nc(SC3CC(=O)N(C3=O)c4ccccc4C(F)(F)F)sc2c1]", "% inhibition (20 µM) biochemical": 6},
      {"smiles": "CCOc1ccccc1C1CC(c2ccccc2)Nc2ncnn21", "note": "(stereo not shown) [MWAC-0001745, CCOc1ccccc1C2CC(Nc3ncnn23)c4ccccc4]", "% inhibition (20 µM) biochemical": 5.37},
      {"smiles": "CCOc1ccccc1C1Nc2ccccc2NC2=C1C(=O)CC(c1ccc3c(c1)OCO3)C2", "note": "(stereo not shown) [MWAC-0001720, CCOc1ccccc1C2Nc3ccccc3NC4=C2C(=O)CC(C4)c5ccc6OCOc6c5]", "% inhibition (20 µM) biochemical": 0}
    ]}
  ]
}
